Key:
Format in all cases: biochemical
Recombinant human FAP = molecular target: T1, Recombinant human FAP (Homo sapiens, UniProt Q12884); test: FAP inhibition, fluorogenic substrate Z-Gly-Pro-AMC; conditions: 25° C., Z-Gly-Pro-AMC substrate
T1 construct: purchased R&D systems
T1 sequence (Q12884 1-760): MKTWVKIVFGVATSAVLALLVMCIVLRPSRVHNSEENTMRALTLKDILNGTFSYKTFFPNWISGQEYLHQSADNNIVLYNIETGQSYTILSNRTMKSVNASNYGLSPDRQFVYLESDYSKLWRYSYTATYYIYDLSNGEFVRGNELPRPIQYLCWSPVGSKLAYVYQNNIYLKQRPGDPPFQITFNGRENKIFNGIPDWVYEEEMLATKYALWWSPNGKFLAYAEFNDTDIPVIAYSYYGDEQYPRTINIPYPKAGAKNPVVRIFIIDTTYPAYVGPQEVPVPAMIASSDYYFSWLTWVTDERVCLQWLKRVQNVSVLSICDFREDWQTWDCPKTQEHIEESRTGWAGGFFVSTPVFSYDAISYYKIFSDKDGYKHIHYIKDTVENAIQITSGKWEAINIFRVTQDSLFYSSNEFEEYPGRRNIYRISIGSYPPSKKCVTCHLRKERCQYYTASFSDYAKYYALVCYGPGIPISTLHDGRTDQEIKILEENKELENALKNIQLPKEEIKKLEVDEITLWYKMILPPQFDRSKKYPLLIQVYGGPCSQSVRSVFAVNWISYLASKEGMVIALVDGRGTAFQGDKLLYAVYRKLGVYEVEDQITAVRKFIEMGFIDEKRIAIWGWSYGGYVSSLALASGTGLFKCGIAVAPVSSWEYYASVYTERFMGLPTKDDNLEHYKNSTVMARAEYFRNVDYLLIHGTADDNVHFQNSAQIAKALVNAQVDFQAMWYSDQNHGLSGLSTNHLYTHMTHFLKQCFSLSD
Outline: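 Eight-point compound dilutions (≤0.1% DMSO) were incubated at 25° C with 10 ng recombinant human FAP in Tris pH 7.5/1 M NaCl/BSA buffer and Z-Gly-Pro-AMC. Inhibition was taken as % drop in fluorescence rate (380/460 nm) against uninhibited control; IC50 came from a four-parameter logistic fit.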

recombinant human DPP7 = molecular target: T2, recombinant human DPP7 (Homo sapiens, UniProt Q9UHL4); test: DPP7 inhibition, fluorogenic substrate Lys-Pro-AMC
T2 construct: purchased R&D Systems
Outline: (§1)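 Inhibitors are titrated in an 8-point series into the enzyme's assay buffer (DMSO no more than 0.5%). Substrate cleavage at 25 °C is followed by fluorescence, excitation 380 nm and emission 460 nm. IC50 values come from a four-variable logistic model.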

recombinant human DPP8 = molecular target: T3, recombinant human DPP8 (Homo sapiens, UniProt Q6V1X1); test: DPP8 inhibition, fluorogenic substrate Z-Ala-Pro-AMC; conditions: 25° C., Z-Ala-Pro-AMC substrate
T3 construct: purchased PBS Bioscience
Outline: as §1

recombinant human DPP9 = molecular target: T4, recombinant human DPP9 (Homo sapiens, UniProt Q86TI2); test: DPP9 inhibition, fluorogenic substrate H-Gly-Pro-AMC; conditions: 25° C., H-Gly-Pro-AMC substrate
T4 construct: purchased R&D Systems
Outline: as §1

recombinant human PREP = molecular target: T5, recombinant human PREP (Homo sapiens, UniProt P48147); test: PREP inhibition, fluorogenic substrate Z-Gly-Pro-AMC; conditions: Inhibitory Activity (IC50, nM) PREP, 25° C., Z-Gly-Pro-AMC substrate
T5 construct: purchased R&D System
T5 sequence (P48147 1-710): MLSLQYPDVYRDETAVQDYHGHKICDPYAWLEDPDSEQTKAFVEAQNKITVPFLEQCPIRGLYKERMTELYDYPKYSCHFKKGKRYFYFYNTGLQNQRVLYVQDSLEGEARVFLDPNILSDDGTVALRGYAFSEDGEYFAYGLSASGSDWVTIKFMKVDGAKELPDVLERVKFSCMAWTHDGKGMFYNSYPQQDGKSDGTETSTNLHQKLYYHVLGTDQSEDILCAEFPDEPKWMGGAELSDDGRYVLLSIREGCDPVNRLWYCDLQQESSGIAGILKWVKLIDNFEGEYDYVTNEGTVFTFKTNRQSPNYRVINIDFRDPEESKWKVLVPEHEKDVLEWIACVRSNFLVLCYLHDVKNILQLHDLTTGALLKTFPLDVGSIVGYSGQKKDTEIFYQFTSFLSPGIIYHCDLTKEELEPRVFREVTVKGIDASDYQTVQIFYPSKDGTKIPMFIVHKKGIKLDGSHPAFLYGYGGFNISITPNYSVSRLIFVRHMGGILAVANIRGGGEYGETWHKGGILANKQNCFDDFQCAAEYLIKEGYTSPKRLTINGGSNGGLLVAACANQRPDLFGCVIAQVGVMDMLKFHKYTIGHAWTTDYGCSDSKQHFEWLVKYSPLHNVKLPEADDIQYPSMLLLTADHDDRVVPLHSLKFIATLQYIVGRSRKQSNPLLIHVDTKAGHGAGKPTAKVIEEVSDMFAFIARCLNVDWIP
Outline: as §1

DPP4 = DPP4 (Homo sapiens, UniProt P27487); test: DPP4 inhibition, fluorogenic substrate H-Gly-Pro-AMC; set-up: purchased R&D Systems; conditions: for IC50: 25° C., H-Gly-Pro-AMC substrate; for inhibition at 1 µM: read-out: hDPP4 inhibition % at 1 μM
DPP4, sequence (P27487 whole entry): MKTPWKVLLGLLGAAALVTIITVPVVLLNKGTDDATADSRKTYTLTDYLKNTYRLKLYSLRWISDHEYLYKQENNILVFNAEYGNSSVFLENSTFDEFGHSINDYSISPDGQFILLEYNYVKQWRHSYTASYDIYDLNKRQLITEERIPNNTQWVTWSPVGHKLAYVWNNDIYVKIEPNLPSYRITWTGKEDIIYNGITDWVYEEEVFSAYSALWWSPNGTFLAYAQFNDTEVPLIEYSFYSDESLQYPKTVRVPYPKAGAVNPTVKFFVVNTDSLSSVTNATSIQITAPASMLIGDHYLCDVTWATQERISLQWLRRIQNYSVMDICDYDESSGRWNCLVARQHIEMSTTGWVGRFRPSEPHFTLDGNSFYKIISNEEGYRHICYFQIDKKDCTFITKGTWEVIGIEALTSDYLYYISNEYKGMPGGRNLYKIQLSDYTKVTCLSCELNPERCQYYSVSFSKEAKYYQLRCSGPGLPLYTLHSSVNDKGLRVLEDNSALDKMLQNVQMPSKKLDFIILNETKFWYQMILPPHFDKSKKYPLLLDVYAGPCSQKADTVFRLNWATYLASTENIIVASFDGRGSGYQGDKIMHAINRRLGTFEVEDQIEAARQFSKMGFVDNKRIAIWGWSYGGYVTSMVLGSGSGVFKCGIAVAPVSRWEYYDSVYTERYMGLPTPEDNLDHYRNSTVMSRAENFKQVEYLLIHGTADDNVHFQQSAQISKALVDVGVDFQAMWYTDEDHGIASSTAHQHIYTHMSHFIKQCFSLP

T4 sequence (Q86TI2 whole entry): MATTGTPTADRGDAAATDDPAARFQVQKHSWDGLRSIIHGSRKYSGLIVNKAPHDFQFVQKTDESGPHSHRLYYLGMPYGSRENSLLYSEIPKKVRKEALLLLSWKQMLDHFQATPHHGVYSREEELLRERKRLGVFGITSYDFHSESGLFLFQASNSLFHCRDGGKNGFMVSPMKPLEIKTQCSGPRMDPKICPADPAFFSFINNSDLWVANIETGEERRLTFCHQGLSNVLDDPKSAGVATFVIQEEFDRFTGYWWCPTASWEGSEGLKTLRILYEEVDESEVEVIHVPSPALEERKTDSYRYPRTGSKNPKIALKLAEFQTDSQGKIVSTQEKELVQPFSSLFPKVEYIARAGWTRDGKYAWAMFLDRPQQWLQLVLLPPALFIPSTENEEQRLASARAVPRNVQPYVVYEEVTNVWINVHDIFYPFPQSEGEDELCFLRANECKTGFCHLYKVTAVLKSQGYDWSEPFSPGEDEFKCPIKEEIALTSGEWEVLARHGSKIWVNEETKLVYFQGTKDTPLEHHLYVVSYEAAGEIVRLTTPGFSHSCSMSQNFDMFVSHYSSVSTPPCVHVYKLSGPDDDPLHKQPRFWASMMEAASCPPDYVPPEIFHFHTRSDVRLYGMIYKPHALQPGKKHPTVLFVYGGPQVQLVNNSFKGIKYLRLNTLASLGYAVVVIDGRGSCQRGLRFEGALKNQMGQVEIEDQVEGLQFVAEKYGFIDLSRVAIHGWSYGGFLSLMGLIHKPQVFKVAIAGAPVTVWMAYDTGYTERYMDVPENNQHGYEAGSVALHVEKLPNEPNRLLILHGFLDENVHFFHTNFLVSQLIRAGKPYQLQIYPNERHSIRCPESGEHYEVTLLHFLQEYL
T3 sequence (Q6V1X1 whole entry): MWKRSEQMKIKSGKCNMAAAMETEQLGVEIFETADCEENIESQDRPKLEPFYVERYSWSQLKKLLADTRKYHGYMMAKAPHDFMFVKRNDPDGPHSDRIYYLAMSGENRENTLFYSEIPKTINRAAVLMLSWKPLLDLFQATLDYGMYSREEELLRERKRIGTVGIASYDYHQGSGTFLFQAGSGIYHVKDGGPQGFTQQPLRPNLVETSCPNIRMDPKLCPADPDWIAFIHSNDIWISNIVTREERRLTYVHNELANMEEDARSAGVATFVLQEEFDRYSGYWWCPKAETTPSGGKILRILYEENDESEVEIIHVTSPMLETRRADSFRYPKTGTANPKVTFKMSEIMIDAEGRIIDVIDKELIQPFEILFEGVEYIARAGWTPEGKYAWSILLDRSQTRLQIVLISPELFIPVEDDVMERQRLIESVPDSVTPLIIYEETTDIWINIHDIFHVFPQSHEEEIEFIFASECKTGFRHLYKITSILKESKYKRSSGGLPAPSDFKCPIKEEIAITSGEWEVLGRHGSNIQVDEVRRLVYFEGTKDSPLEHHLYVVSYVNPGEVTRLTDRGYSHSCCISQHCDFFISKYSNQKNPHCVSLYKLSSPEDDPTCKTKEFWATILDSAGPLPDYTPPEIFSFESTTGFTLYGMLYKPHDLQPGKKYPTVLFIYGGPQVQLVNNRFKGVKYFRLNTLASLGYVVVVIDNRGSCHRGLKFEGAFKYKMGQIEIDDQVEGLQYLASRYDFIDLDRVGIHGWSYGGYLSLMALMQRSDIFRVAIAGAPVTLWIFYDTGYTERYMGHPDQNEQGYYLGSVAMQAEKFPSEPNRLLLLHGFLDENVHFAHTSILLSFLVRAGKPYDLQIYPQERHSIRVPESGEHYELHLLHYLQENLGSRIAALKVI

## COc1ccc2c(O[C@H]3CCN(CC(=O)N4CCC[C@H]4C#N)C3)ccnc2c1 [Example 100, (S)-1-(2-((S)-3-((7-methoxyquinolin-4-yl)oxy)pyrrolidin-1-yl)acetyl)pyrrolidine-2-carbonitrile]
Recombinant human FAP
  IC50: 0.0135 µM
Recombinant human DPP7
  IC50: 1.15 µM
Recombinant human DPP8
  IC50: 73.8 µM
Recombinant human DPP9
  IC50: > 100 µM
Recombinant human PREP
  IC50: 2490 nM
DPP4
  IC50: > 1 µM

## COc1cc2nccc(O[C@H]3CCN(CC(=O)N4CCC[C@H]4C#N)C3)c2cc1OC [Example 101, (S)-1-(2-((S)-3-((6,7-dimethoxyquinolin-4-yl)oxy)pyrrolidin-1-yl)acetyl)pyrrolidine-2-carbonitrile]
Recombinant human FAP
  IC50: 0.00057 µM
Recombinant human DPP7
  IC50: 0.626 µM
Recombinant human DPP8
  IC50: > 100 µM
Recombinant human DPP9
  IC50: > 100 µM
Recombinant human PREP
  IC50: 3020 nM
DPP4
  IC50: > 1 µM

## COc1ccc2nccc(O[C@H]3CCN(CC(=O)N4CC(F)(F)C[C@H]4C#N)C3)c2c1 [Example 103, (S)-4,4-difluoro-1-(2-((S)-3-((6-methoxyquinolin-4-yl)oxy)pyrrolidin-1-yl)acetyl)pyrrolidine-2-carbonitrile]
Recombinant human FAP
  IC50: 0.00068 µM
Recombinant human DPP7
  IC50: 0.174 µM
Recombinant human DPP8
  IC50: 7.68 µM
Recombinant human DPP9
  IC50: 4.75 µM
Recombinant human PREP
  IC50: 5670 nM
DPP4
  IC50: > 1 µM

## N#C[C@@H]1CC(F)(F)CN1C(=O)CN1CC[C@H](Oc2ccnc3c(C(F)(F)F)cccc23)C1 [Example 104, (S)-4,4-difluoro-1-(2-((S)-3-((8-(trifluoromethyl)quinolin-4-yl)oxy)pyrrolidin-1-yl)acetyl)pyrrolidine-2-carbonitrile]
Recombinant human FAP
  IC50: 0.00114 µM
Recombinant human DPP7
  IC50: 0.0834 µM
Recombinant human DPP8
  IC50: 16.2 µM
Recombinant human DPP9
  IC50: 22.2 µM
Recombinant human PREP
  IC50: 3080 nM
DPP4
  IC50: > 1 µM

## N#C[C@@H]1CC(F)(F)CN1C(=O)CN1CC[C@H](Oc2cccc3ncccc23)C1 [Example 105, (S)-4,4-difluoro-1-(2-((S)-3-(quinolin-5-yloxy)pyrrolidin-1-yl)acetyl)pyrrolidine-2-carbonitrile]
Recombinant human FAP
  IC50: 0.00121 µM
Recombinant human DPP7
  IC50: 0.0635 µM
Recombinant human DPP8
  IC50: 11.8 µM
Recombinant human DPP9
  IC50: 12.5 µM
Recombinant human PREP
  IC50: 5230 nM
DPP4
  IC50: > 1 µM

## N#C[C@@H]1CC(F)(F)CN1C(=O)CN1CC[C@H](Oc2cccc3cnccc23)C1 [Example 106, (S)-4,4-difluoro-1-(2-((S)-3-(isoquinolin-5-yloxy)pyrrolidin-1-yl)acetyl)pyrrolidine-2-carbonitrile]
Recombinant human FAP
  IC50: 0.00188 µM
Recombinant human DPP7
  IC50: 0.0416 µM
Recombinant human DPP8
  IC50: 8.28 µM
Recombinant human DPP9
  IC50: 10.3 µM
Recombinant human PREP
  IC50: 4310 nM
DPP4
  IC50: > 1 µM

## N#C[C@@H]1CC(F)(F)CN1C(=O)CN1CC[C@H](Oc2ccnc3cc(Cl)ccc23)C1 [Example 107, (S)-1-(2-((S)-3-((7-chloroquinolin-4-yl)oxy)pyrrolidin-1-yl)acetyl)-4,4-difluoropyrrolidine-2-carbonitrile]
Recombinant human FAP
  IC50: 0.00367 µM
Recombinant human DPP7
  IC50: 0.0187 µM
Recombinant human DPP8
  IC50: 9.89 µM
Recombinant human DPP9
  IC50: 13.5 µM
Recombinant human PREP
  IC50: 6500 nM
DPP4
  IC50: > 1 µM

## N#C[C@@H]1CC(F)(F)CN1C(=O)CN1CC[C@H](Oc2cccc3[nH]c(=O)ccc23)C1 [Example 108, (S)-4,4-difluoro-1-(2-((S)-3-((2-oxo-1,2-dihydroquinolin-5-yl)oxy)pyrrolidin-1-yl)acetyl)pyrrolidine-2-carbonitrile]
Recombinant human FAP
  IC50: 0.00215 µM
Recombinant human DPP7
  IC50: 0.0076 µM
Recombinant human DPP8
  IC50: 6.68 µM
Recombinant human DPP9
  IC50: 6.3 µM
Recombinant human PREP
  IC50: 3150 nM
DPP4
  IC50: > 1 µM

## N#C[C@@H]1CC(F)(F)CN1C(=O)CN1CC[C@H](Oc2ccc(Cl)c3cccnc23)C1 [Example 109, (S)-1-(2-((S)-3-((5-chloroquinolin-8-yl)oxy)pyrrolidin-1-yl)acetyl)-4,4-difluoropyrrolidine-2-carbonitrile]
Recombinant human FAP
  IC50: 0.0018 µM
Recombinant human DPP7
  IC50: 0.0383 µM
Recombinant human DPP8
  IC50: 2.17 µM
Recombinant human DPP9
  IC50: 4.43 µM
Recombinant human PREP
  IC50: 4140 nM
DPP4
  IC50: > 1 µM

## N#C[C@@H]1CCCN1C(=O)CN1CCC(Nc2ccnc3ccccc23)CC1 [Example 111, (S)-1-(2-(4-(quinolin-4-ylamino)piperidin-1-yl)acetyl)pyrrolidine-2-carbonitrile]
Recombinant human FAP
  IC50: 0.00828 µM
Recombinant human DPP7
  IC50: 0.503 µM
Recombinant human DPP8
  IC50: 31.9 µM
Recombinant human DPP9
  IC50: 21.1 µM
Recombinant human PREP
  IC50: 4170 nM
DPP4
  hDPP4 inhibition % at 1 μM: No inhibition**

## N#C[C@@H]1C[C@H](F)CN1C(=O)CN1CCC(Nc2cccc3ncccc23)CC1 [Example 113, (2S,4S)-4-fluoro-1-(2-(4-(quinolin-5-ylamino)piperidin-1-yl)acetyl)pyrrolidine-2-carbonitrile]
Recombinant human FAP
  IC50: 0.00165 µM
Recombinant human DPP7
  IC50: 0.342 µM
Recombinant human DPP8
  IC50: 2.41 µM
Recombinant human DPP9
  IC50: 3.97 µM
Recombinant human PREP
  IC50: 2930 nM
DPP4
  inhibition at 1 µM: 20%

## N#C[C@@H]1CC(F)(F)CN1C(=O)CN1CCC(Nc2cccc3ncccc23)CC1 [Example 114, (S)-4,4-difluoro-1-(2-(4-(quinolin-5-ylamino)piperidin-1-yl)acetyl)pyrrolidine-2-carbonitrile]
Recombinant human FAP
  IC50: 0.00094 µM
Recombinant human DPP7
  IC50: < 0.03 µM
Recombinant human DPP8
  IC50: 1.53 µM
Recombinant human DPP9
  IC50: 3.4 µM
Recombinant human PREP
  IC50: 31000 nM
DPP4
  inhibition at 1 µM: 15.7%

## N#C[C@@H]1C[C@@H]2C[C@@H]2N1C(=O)CN1CCC(Nc2cccc3ncccc23)CC1 [Example 115, (1S,3S,5S)-2-(2-(4-(quinolin-5-ylamino)piperidin-1-yl)acetyl)-2-azabicyclo[3.1.0]hexane-3-carbonitrile]
Recombinant human FAP
  IC50: 0.00564 µM
Recombinant human DPP7
  IC50: 5.74 µM
Recombinant human DPP8
  IC50: 52.1 µM
Recombinant human DPP9
  IC50: 45.1 µM
Recombinant human PREP
  IC50: > 100000 nM
DPP4
  inhibition at 1 µM: 1.4%

## N#C[C@@H]1CCCN1C(=O)CN1CCC(Oc2ccnc3ccccc23)CC1 [Example 118, (S)-1-(2-(4-(quinolin-4-yloxy)piperidin-1-yl)acetyl)pyrrolidine-2-carbonitrile]
Recombinant human FAP
  IC50: 0.00234 µM
Recombinant human DPP7
  IC50: 10.2 µM
Recombinant human DPP8
  IC50: 85.4 µM
Recombinant human DPP9
  IC50: > 100 µM
Recombinant human PREP
  IC50: 1040 nM
DPP4
  hDPP4 inhibition % at 1 μM: No inhibition**

## N#C[C@@H]1CCCN1C(=O)CN1CCC(Oc2cccc3ncccc23)CC1 [Example 119, (S)-1-(2-(4-(quinolin-5-yloxy)piperidin-1-yl)acetyl)pyrrolidine-2-carbonitrile]
Recombinant human FAP
  IC50: 0.00145 µM
Recombinant human DPP7
  IC50: 2.35 µM
Recombinant human DPP8
  IC50: 60.4 µM
Recombinant human DPP9
  IC50: > 100 µM
Recombinant human PREP
  IC50: 3760 nM
DPP4
  hDPP4 inhibition % at 1 μM: No inhibition**

## Cc1cnc2cccc(NC3CCN(CC(=O)N4CCC[C@H]4C#N)CC3)c2c1 [Example 121, (S)-1-(2-(4-((3-methylquinolin-5-yl)amino)piperidin-1-yl)acetyl)pyrrolidine-2-carbonitrile]
Recombinant human FAP
  IC50: 0.00184 µM
Recombinant human DPP7
  IC50: 1.74 µM
Recombinant human DPP8
  IC50: 48.1 µM
Recombinant human DPP9
  IC50: 46.9 µM
Recombinant human PREP
  IC50: 73700 nM
DPP4
  IC50: > 10 µM

## Cc1ccc2ncccc2c1NC1CCN(CC(=O)N2CCC[C@H]2C#N)CC1 [Example 122, (S)-1-(2-(4-((6-methylquinolin-5-yl)amino)piperidin-1-yl)acetyl)pyrrolidine-2-carbonitrile]
Recombinant human FAP
  IC50: 0.445 µM
Recombinant human DPP7
  IC50: > 100 µM
Recombinant human DPP8
  IC50: > 100 µM
Recombinant human DPP9
  IC50: > 100 µM
Recombinant human PREP
  IC50: 23700 nM
DPP4
  IC50: > 10 µM

Source: patent US11655235B2, “Pyrrolidine and piperidine compounds” (YUHAN CORPORATION, priority 2019, dated 2023)
